From patent US6339042B1, “Herbicidal N-cyclohexadienyl heteroaryloxyacetamides” (American Cyanamid Co., priority 1999, dated 2002)

Assays:
Amaranthus tuberculatus [1] = assay: Pre-emergence herbicidal evaluation, AMATA; assay type: in vivo; conditions: three weeks after treatment
From the text: (§1) The treated pots are then placed on greenhouse benches, watered and cared for in accordance with conventional greenhouse procedures.

Alopecurus myosuroides [2] = assay: Pre-emergence herbicidal evaluation, ALOMY; assay type: in vivo; conditions: three weeks after treatment
From the text: as §1

Apera spica venti [3] = assay: Pre-emergence herbicidal evaluation, APESV; assay type: in vivo; conditions: three weeks after treatment
From the text: as §1

Echinochloa crus-galli [4] = assay: Pre-emergence herbicidal evaluation, ECHCG; assay type: in vivo; conditions: three weeks after treatment
From the text: as §1

Setaria viridis [5] = assay: Pre-emergence herbicidal evaluation, SETVI; assay type: in vivo; conditions: three weeks after treatment
From the text: as §1

Lolium perenne [6] = assay: Pre-emergence herbicidal evaluation, LOLPE; assay type: in vivo; conditions: three weeks after treatment
From the text: as §1

Triticum aestivum [7] = assay: Pre-emergence herbicidal evaluation, TRZAW; assay type: in vivo; conditions: three weeks after treatment
From the text: as §1

Hordeum vulgare [8] = assay: Pre-emergence herbicidal evaluation, HORVW; assay type: in vivo; conditions: three weeks after treatment
From the text: as §1

Zea mays [9] = assay: Pre-emergence herbicidal evaluation, ZEAMX; assay type: in vivo; conditions: three weeks after treatment
From the text: as §1

Glycine max [10] = assay: Pre-emergence herbicidal evaluation, GLXMA; assay type: in vivo; conditions: three weeks after treatment
From the text: as §1

Oryza sativum [11] = assay: Pre-emergence herbicidal evaluation, ORYSA; assay type: in vivo; conditions: three weeks after treatment
From the text: as §1

Amaranthus tuberculatus [12] = assay: Post-emergence herbicidal evaluation, AMATA; assay type: in vivo; conditions: three weeks after treatment
Galium aparine = assay: Post-emergence herbicidal evaluation, GALAP; conditions: three weeks after treatment
Method: (§2) The compounds of the invention are tested for pre- and post-emergence herbicidal activity.
(§3) Each pot is examined three weeks after treatment and phytotoxicity is assessed according to the rating system set forth below.
(§4) These acetone solutions are diluted with water and the resulting formulations applied at dosage levels equivalent of about 0.4 to 0.1 kg per hectare of test compound per pot. After spraying the plants are placed on greenhouse benches and are cared for in the usual manner, commensurate with conventional greenhouse practices.

Alopecurus myosuroides [13] = assay: Post-emergence herbicidal evaluation, ALOMY; conditions: three weeks after treatment
Method: as §2, §3, §4

Apera spica venti [14] = assay: Post-emergence herbicidal evaluation, APESV; conditions: three weeks after treatment
Echinochloa crus-galli [15] = assay: Post-emergence herbicidal evaluation, ECHCG; conditions: three weeks after treatment
Setaria viridis [16] = assay: Post-emergence herbicidal evaluation, SETVI; conditions: three weeks after treatment
Lolium perenne [17] = assay: Post-emergence herbicidal evaluation, LOLPE; conditions: three weeks after treatment
Triticum aestivum [18] = assay: Post-emergence herbicidal evaluation, TRZAW; conditions: three weeks after treatment
Hordeum vulgare [19] = assay: Post-emergence herbicidal evaluation, HORVW; conditions: three weeks after treatment
Method: as §3, §4

Zea mays [20] = assay: Post-emergence herbicidal evaluation, ZEAMX; conditions: three weeks after treatment
Glycine max [21] = assay: Post-emergence herbicidal evaluation, GLXMA; conditions: three weeks after treatment
Oryza sativum [22] = assay: Post-emergence herbicidal evaluation, ORYSA; conditions: three weeks after treatment
Method: as §2, §3, §4

CCN(C(=O)COc1nnc(C(F)(F)C(F)(F)F)s1)C1=CC(C)(C)CC(C)=C1 [Example 8]
phytotoxicity rating AMATA (Amaranthus tuberculatus [1]; 0.100 kg/ha): 0 (0 - No effect) | phytotoxicity rating AMATA (Amaranthus tuberculatus [1]; 0.200 kg/ha): 1 (1 - Trace effect) | phytotoxicity rating AMATA (Amaranthus tuberculatus [1]; 0.400 kg/ha): 5 (5 - Definite injury) | phytotoxicity rating AMATA (Amaranthus tuberculatus [1]; 0.800 kg/ha): 6 (6 - Herbicidal effect) | phytotoxicity rating ALOMY (Alopecurus myosuroides [2]; 0.100 kg/ha): 1 (1 - Trace effect) | phytotoxicity rating ALOMY (Alopecurus myosuroides [2]; 0.200 kg/ha): 4 (4 - Injury) | phytotoxicity rating ALOMY (Alopecurus myosuroides [2]; 0.400 kg/ha): 6 (6 - Herbicidal effect) | phytotoxicity rating ALOMY (Alopecurus myosuroides [2]; 0.800 kg/ha): 8 (8 - Approaching complete kill) | phytotoxicity rating APESV (Apera spica venti [3]; 0.100 kg/ha): 0 (0 - No effect) | phytotoxicity rating APESV (Apera spica venti [3]; 0.200 kg/ha): 0 (0 - No effect) | phytotoxicity rating APESV (Apera spica venti [3]; 0.400 kg/ha): 8 (8 - Approaching complete kill) | phytotoxicity rating APESV (Apera spica venti [3]; 0.800 kg/ha): 9 (9 - Complete kill) | phytotoxicity rating ECHCG (Echinochloa crus-galli [4]; 0.100 kg/ha): 1 (1 - Trace effect) | phytotoxicity rating ECHCG (Echinochloa crus-galli [4]; 0.200 kg/ha): 4 (4 - Injury) | phytotoxicity rating ECHCG (Echinochloa crus-galli [4]; 0.400 kg/ha): 4 (4 - Injury) | phytotoxicity rating ECHCG (Echinochloa crus-galli [4]; 0.800 kg/ha): 8 (8 - Approaching complete kill) | phytotoxicity rating SETVI (Setaria viridis [5]; 0.100 kg/ha): 1 (1 - Trace effect) | phytotoxicity rating SETVI (Setaria viridis [5]; 0.200 kg/ha): 4 (4 - Injury) | phytotoxicity rating SETVI (Setaria viridis [5]; 0.400 kg/ha): 4 (4 - Injury) | phytotoxicity rating SETVI (Setaria viridis [5]; 0.800 kg/ha): 7 (7 - Good herbicidal effect) | phytotoxicity rating LOLPE (Lolium perenne [6]; 0.100 kg/ha): 1 (1 - Trace effect) | phytotoxicity rating LOLPE (Lolium perenne [6]; 0.200 kg/ha): 4 (4 - Injury) | phytotoxicity rating LOLPE (Lolium perenne [6]; 0.400 kg/ha): 6 (6 - Herbicidal effect) | phytotoxicity rating LOLPE (Lolium perenne [6]; 0.800 kg/ha): 6 (6 - Herbicidal effect) | phytotoxicity rating TRZAW (Triticum aestivum [7]; 0.100 kg/ha): 0 (0 - No effect) | phytotoxicity rating TRZAW (Triticum aestivum [7]; 0.200 kg/ha): 0 (0 - No effect) | phytotoxicity rating TRZAW (Triticum aestivum [7]; 0.400 kg/ha): 0 (0 - No effect) | phytotoxicity rating TRZAW (Triticum aestivum [7]; 0.800 kg/ha): 0 (0 - No effect) | phytotoxicity rating HORVW (Hordeum vulgare [8]; 0.100 kg/ha): 0 (0 - No effect) | phytotoxicity rating HORVW (Hordeum vulgare [8]; 0.200 kg/ha): 0 (0 - No effect) | phytotoxicity rating HORVW (Hordeum vulgare [8]; 0.400 kg/ha): 1 (1 - Trace effect) | phytotoxicity rating HORVW (Hordeum vulgare [8]; 0.800 kg/ha): 2 (2 - Slight effect) | phytotoxicity rating ZEAMX (Zea mays [9]; 0.100 kg/ha): 0 (0 - No effect) | phytotoxicity rating ZEAMX (Zea mays [9]; 0.200 kg/ha): 0 (0 - No effect) | phytotoxicity rating ZEAMX (Zea mays [9]; 0.400 kg/ha): 0 (0 - No effect) | phytotoxicity rating ZEAMX (Zea mays [9]; 0.800 kg/ha): 0 (0 - No effect) | phytotoxicity rating GLXMA (Glycine max [10]; 0.100 kg/ha): 0 (0 - No effect) | phytotoxicity rating GLXMA (Glycine max [10]; 0.200 kg/ha): 0 (0 - No effect) | phytotoxicity rating GLXMA (Glycine max [10]; 0.400 kg/ha): 0 (0 - No effect) | phytotoxicity rating GLXMA (Glycine max [10]; 0.800 kg/ha): 0 (0 - No effect) | phytotoxicity rating ORYSA (Oryza sativum [11]; 0.100 kg/ha): 0 (0 - No effect) | phytotoxicity rating ORYSA (Oryza sativum [11]; 0.200 kg/ha): 0 (0 - No effect) | phytotoxicity rating ORYSA (Oryza sativum [11]; 0.400 kg/ha): 0 (0 - No effect) | phytotoxicity rating ORYSA (Oryza sativum [11]; 0.800 kg/ha): 1 (1 - Trace effect) | phytotoxicity rating AMATA (Amaranthus tuberculatus [12]; 0.100 kg/ha): 0 (0 - No effect) | phytotoxicity rating AMATA (Amaranthus tuberculatus [12]; 0.200 kg/ha): 0 (0 - No effect) | phytotoxicity rating AMATA (Amaranthus tuberculatus [12]; 0.400 kg/ha): 0 (0 - No effect) | melting point: 55 °C | phytotoxicity rating GALAP (Galium aparine; 0.100 kg/ha): 0 (0 - No effect) | phytotoxicity rating GALAP (Galium aparine; 0.200 kg/ha): 0 (0 - No effect) | phytotoxicity rating GALAP (Galium aparine; 0.400 kg/ha): 5 (5 - Definite injury) | phytotoxicity rating ALOMY (Alopecurus myosuroides [13]; 0.100 kg/ha): 0 (0 - No effect) | phytotoxicity rating ALOMY (Alopecurus myosuroides [13]; 0.200 kg/ha): 4 (4 - Injury) | phytotoxicity rating ALOMY (Alopecurus myosuroides [13]; 0.400 kg/ha): 4 (4 - Injury) | phytotoxicity rating APESV (Apera spica venti [14]; 0.100 kg/ha): 0 (0 - No effect) | phytotoxicity rating APESV (Apera spica venti [14]; 0.200 kg/ha): 4 (4 - Injury) | phytotoxicity rating APESV (Apera spica venti [14]; 0.400 kg/ha): 6 (6 - Herbicidal effect) | phytotoxicity rating ECHCG (Echinochloa crus-galli [15]; 0.100 kg/ha): 0 (0 - No effect) | phytotoxicity rating ECHCG (Echinochloa crus-galli [15]; 0.200 kg/ha): 0 (0 - No effect) | phytotoxicity rating ECHCG (Echinochloa crus-galli [15]; 0.400 kg/ha): 0 (0 - No effect) | phytotoxicity rating SETVI (Setaria viridis [16]; 0.100 kg/ha): 0 (0 - No effect) | phytotoxicity rating SETVI (Setaria viridis [16]; 0.200 kg/ha): 0 (0 - No effect) | phytotoxicity rating SETVI (Setaria viridis [16]; 0.400 kg/ha): 0 (0 - No effect) | phytotoxicity rating LOLPE (Lolium perenne [17]; 0.100 kg/ha): 1 (1 - Trace effect) | phytotoxicity rating LOLPE (Lolium perenne [17]; 0.200 kg/ha): 7 (7 - Good herbicidal effect) | phytotoxicity rating LOLPE (Lolium perenne [17]; 0.400 kg/ha): 8 (8 - Approaching complete kill) | phytotoxicity rating TRZAW (Triticum aestivum [18]; 0.100 kg/ha): 0 (0 - No effect) | phytotoxicity rating TRZAW (Triticum aestivum [18]; 0.200 kg/ha): 0 (0 - No effect) | phytotoxicity rating TRZAW (Triticum aestivum [18]; 0.400 kg/ha): 1 (1 - Trace effect) | phytotoxicity rating HORVW (Hordeum vulgare [19]; 0.100 kg/ha): 0 (0 - No effect) | phytotoxicity rating HORVW (Hordeum vulgare [19]; 0.200 kg/ha): 0 (0 - No effect) | phytotoxicity rating HORVW (Hordeum vulgare [19]; 0.400 kg/ha): 0 (0 - No effect) | phytotoxicity rating ZEAMX (Zea mays [20]; 0.100 kg/ha): 0 (0 - No effect) | phytotoxicity rating ZEAMX (Zea mays [20]; 0.200 kg/ha): 0 (0 - No effect) | phytotoxicity rating ZEAMX (Zea mays [20]; 0.400 kg/ha): 0 (0 - No effect) | phytotoxicity rating GLXMA (Glycine max [21]; 0.100 kg/ha): 2 (2 - Slight effect) | phytotoxicity rating GLXMA (Glycine max [21]; 0.200 kg/ha): 3 (3 - Moderate effect) | phytotoxicity rating GLXMA (Glycine max [21]; 0.400 kg/ha): 4 (4 - Injury) | phytotoxicity rating ORYSA (Oryza sativum [22]; 0.100 kg/ha): 0 (0 - No effect) | phytotoxicity rating ORYSA (Oryza sativum [22]; 0.200 kg/ha): 0 (0 - No effect) | phytotoxicity rating ORYSA (Oryza sativum [22]; 0.400 kg/ha): 2 (2 - Slight effect)
